Experiments:
DNA synthesis = test: cytotoxicity and effect on DNA, RNA and protein synthesis (Fig. I); type: cell-based
[1] = test system: DNA synthesis in HeLa cells; test: inhibition of DNA synthesis in HeLa cells; type: cell-based; settings: Homo sapiens, 1 h, 60 min
Protocol: (§1) Effects of Inhibitors on Synthesis of DNA and TTP in HeLa Cells
^a Measured, over a period of 60 min., as described in the Legend to […]

Lewis lung carcinoma = test: tumor cell growth in culture, Lewis lung carcinoma; type: cell-based; settings: testing at Roswell Park Memorial Institute
Description: (§2) on Tumor Cell Growth in Culture
(§3) ^a Testing performed at Roswell Park Memorial Institute. See proposal
(§4) for methodology and references.

[2] = test system: DLD-1 human colon carcinoma; test: tumor cell growth in culture, DLD-1 human colon carcinoma; type: cell-based; settings: testing at Brown University
Description: as §2
^b Testing performed at Brown University. Cell lines and methodology

[3] = test system: TTP formation in HeLa cells; test: inhibition of TTP formation in HeLa cells; type: cell-based; settings: Homo sapiens, 0.5 h, 30 min
Protocol: as §1
^b HeLa cells were suspended for 30 min. in 2 ml. of minimal essentia
media containing 25 uCi of ^3 H--thymidine. Cells were lysed, carrier
nucleotides added and ^3 H--TTP isolated by thin layer chromatography

B-16 melanoma = test: tumor cell growth in culture, B-16 melanoma; type: cell-based; settings: Mus musculus, B16, testing at Roswell Park Memorial Institute
Description: as §2, §3, §4

L-1210 Leukemia = test: tumor cell growth in culture, L-1210 Leukemia; type: cell-based; settings: Mus musculus, L1210, testing at Roswell Park Memorial Institute
Description: as §2, §3, §4

murine leukemia = murine leukemia model, ascites cells implanted i.p. in mice (Table I); type: in vivo, murine (CFD1+ mice); settings: for Effect MST % T/C: >125 considered significant; for MST (median survival time): control 6.5
Description: Tumor Inoculum: 10^6 ascites cells implanted i.p.
Evaluation: MST = median survival time
Effect: % T/C = (MST treated/MST control) × 100.

[4] = 2 mg/kg/inj IP, schedule qd 1 5
[5] = 4 mg/kg/inj IP, schedule qd 1 5
[6] = 8 mg/kg/inj IP, schedule qd 1 5
[7] = 16 mg/kg/inj IP, schedule qd 1 5

SMILES: Cc1cn([C@H]2C[C@H](O)[C@@H](CO)O2)c(=O)n(C=CC=O)c1=O [XX-336, 3-(thymidin-3-yl)-prop-2-enal]
- cytotoxicity associated with inhibition of DNA synthesis (DNA synthesis): associated dominantly with the inhibition of DNA synthesis
- inhibition at 0.1 µM ([1]; 0.1 μM): 6%
- inhibition at 0.3 µM ([1]; 0.3 μM): 38%
- inhibition at 1 µM ([1]; 1.0 μM): 70%
- inhibition at 2 µM ([1]; 2.0 μM): 88%
- inhibition at 20 µM ([1]; 20.0 μM): 100%
- IC50 (Lewis lung carcinoma): 5.9 µM
- IC50 [2]: 5 µM
- inhibition at 0.1 µM ([3]; 0.1 μM): 6%
- inhibition at 0.3 µM ([3]; 0.3 μM): 50%
- inhibition at 1 µM ([3]; 1.0 μM): 75%
- inhibition at 2 µM ([3]; 2.0 μM): 85%
- inhibition at 20 µM ([3]; 20.0 μM): 95%
- IC50 (B-16 melanoma): 4.2 µM
- IC50 (L-1210 Leukemia): 1.6 µM
- Effect MST % T/C (murine leukemia; [4]): 123%
- MST (median survival time) (murine leukemia; [4]): 8.0 days
- Effect MST % T/C (murine leukemia; [5]): 123%
- MST (median survival time) (murine leukemia; [5]): 8.0 days
- Effect MST % T/C (murine leukemia; 8 mg/kg/inj IP, schedule d.1): 154%
- MST (median survival time) (murine leukemia; 8 mg/kg/inj IP, schedule d.1): 10.0 days
- Effect MST % T/C (murine leukemia; [6]): 146%
- MST (median survival time) (murine leukemia; [6]): 9.5 days
- Effect MST % T/C (murine leukemia; 16 mg/kg/inj IP, schedule d.1): 131%
- MST (median survival time) (murine leukemia; 16 mg/kg/inj IP, schedule d.1): 8.5 days
- Effect MST % T/C (murine leukemia; [7]): 146%
- MST (median survival time) (murine leukemia; [7]): 9.5 days
- Effect MST % T/C (murine leukemia; 32 mg/kg/inj IP, schedule d.1): 123%
- MST (median survival time) (murine leukemia; 32 mg/kg/inj IP, schedule d.1): 8.0 days
